Test results from US12042530B2, “Target peptides for immunotherapy and diagnostics” (University of Virginia Patent Foundation, priority 2012, dated 2024).
Read-outs that look alike come from different tables or passages of the source. Non-standard residues stand in square brackets, D forms with d. No end group written: not given here. pS = N[C@@H](COP(=O)(O)O)C(=O)O

Legend:
PBMCs [1] = experiment: Memory T cell response, IFNγ ELISpot, healthy A2 positive donors; assay type: cell-based, human; settings: for Day 7 ELISpot, donor alpha: healthy A2 positive donor alpha; for Day 7 ELISpot, donor one: healthy A2 positive donor one
cancer cell lines = experiment: Recognition of naturally processed phosphopeptides on cancer cell lines by phosphopeptide-specific CTL (murine IFNγ); assay type: cell-based, human; settings: ovarian, melanoma and breast cancer lines versus JY EBV-BLCL control
Procedure: FIGS. 9A and 9B are bar graphs of the recognition of naturally processed and presented phosphorylated peptides on cancer cells by the phosphopeptide-specific CTL. Phosphopeptide-specific CTL were incubated with the following cancer cell lines or EBV-transformed B lymphoblastoid cell lines (BLCL): COV413.AAD.A4 ovarian carcinoma, DM331.AAD.A4 and SLM2.AAD.A1 melanomas, MCF7.AAD.A2 and MDAMB231.AAD breast carcinomas, and JY EBV-BLCL. Supernatants were harvested and evaluated for the presence of murine IFNγ (produced by murine CTL lines). […] The designation “pS” denotes a phosphoserine residue. The ordinate indicates murine IFNγ in pg/ml. The abscissa indicates each cell line.

[2] = test system: RQA(pS)IELPSMAV-specific T cells; experiment: Recognition of peptide-loaded targets by RQA(pS)[…]-specific T cells (IFNγ); assay type: cell-based, human
Description: Three of the HLA-A2 and two HLA-B7 phosphopeptides were derived from LSP-1, a protein previously identified as a potential tumor marker. One of these, RQA(pS)[…] (SEQ ID NO: 452), was selected for initial immunological studies due to its widespread expression on all HLA-A2^+ tumor samples analyzed and also because it was present on tumor samples at high copy number. Monocyte-derived dendritic cells were generated from healthy donors and used to prime autologous T cells and HLA-phosphopeptide tetramers were used to enrich phosphopeptide-specific T cells, between each stimulation steps, to produce a monospecific T cell line (see FIG. 11A). […] Recognition was, therefore, phosphate-dependent and phosphopeptide-specific.
HLA-A2 restricted RQA-V (SEQ ID NO: 2375) phosphopeptide-specific cytotoxic CD8^+ T cells were generated from healthy donors as described previously in Ho et al., 2006. Briefly, PBMCs were cultured in flat-bottom 6-well plates at 10^7 cells per well in RPMI 1640 plus 10% heat-inactivated human AB serum (10% media). GM-CSF (800 IU/mL), and IL-4 (1000 units/mL; PeproTech) were added on day 0 to generate dendritic cells (DC). On day 1, a maturation cocktail was added containing 100 ng/ml TNFα, 100 ng/ml IL-1β, 10,000 IU/ml IL-6, 8,000 IU/ml GM-CSF, and 10 μg/ml PGE2. […]

CD8+ T cells = experiment: ELISpot T cell recognition assay, healthy donors, leukemia-associated phosphopeptides; assay type: cell-based, human; settings: 10 HLA-A2+ and 10 HLA-B7+ healthy individuals, 7 day cultures
Procedure: Immunity against 76 HLA-B7 and 10 HLA-A2 leukemia-associated phosphopeptide antigens was assessed in 10 HLA-A2^+ and 10 HLA-B7^+ healthy individuals (see FIG. 12A).
For ELISpot analysis, PBMCs and CD8^+ T cells were isolated fresh from healthy donors and patients. 1×10^6 PBMCs were isolated from both AML patients and healthy donors and resuspended in AIM-V media (10% human AB serum) in a 96 well plate. Peptide or phosphopeptides were added individually at 10 μg/ml and placed at 37° C. in CO2 incubator for 7 days. Cells were then harvested, washed 4 times, and re-challenged with phosphopeptides, peptides, or anti-CD3 (OKT3, 100 ng/ml, Mabtech, Inc., Mariemont, Ohio, United States of America) as per the manufacturer's instructions. Individual cytokine-producing cells were identified as dark spots after a 15 minute reaction with 5-bromo-4-chloro-3-indolyl phosphate and NBT by means of an alkaline phosphatase conjugate substrate (Mabtech).

PBMCs [3] = experiment: 7-day recall ELISpot, AML patients, before and after stem cell transplantation; assay type: cell-based, human
Procedure: To develop a more complete understanding of phosphoantigen-directed T cell immunity in patients with leukemia, these studies were extended into AML using a panel of 14 AML-specific phosphopeptide antigens. A cohort of 12 patients in complete remission (CR) with AML (see Table 24) were assessed using 7-day recall responses, as measured by ELISpot, and compared against a cohort of 12 healthy donors (see FIGS. 14A and 16).
To test this hypothesis, all 12 AML patients underwent allogeneic SCT and immune reconstitution against 14 AML-specific phosphopeptide antigens was monitored. […] For some patients, immune reconstitution was studied in more detail. For patient AML8 marked expansions of 6 different phosphopeptide immune responses were observed (see FIG. 14E).
For ELISpot analysis, PBMCs and CD8^+ T cells were isolated fresh from healthy donors and patients. 1×10^6 PBMCs were isolated from both AML patients and healthy donors and resuspended in AIM-V media (10% human AB serum) in a 96 well plate. Peptide or phosphopeptides were added individually at 10 μg/ml and placed at 37° C. in CO2 incubator for 7 days. Cells were then harvested, washed 4 times, and re-challenged with phosphopeptides, peptides, or anti-CD3 (OKT3, 100 ng/ml, Mabtech, Inc., Mariemont, Ohio, United States of America) as per the manufacturer's instructions. […]

HLA A*0301 = HLA A*0301 (Homo sapiens, UniProt P04439); experiment: Binding to HLA A*0301 (statement)
HLA A*0201 = HLA A*0201 (Homo sapiens, UniProt P04439, D140Y/D185E/D98H/E176V/E277Q/G131W/G231S/I119V/I121R/I166T/I218V/L300P/L318F/N151K/N90K/P208A/P217A/Q86G/Q94H/R138H/R169H/T345S); experiment: Binding to HLA A*0201 (statement)
phosphoS33-β-catenin = experiment: Western blot of phosphoS33-β-catenin and β-catenin; assay type: cell-based, human; settings: BIO in the presence of lactacystin
Procedure: Lysates were prepared from ˜80% confluent cells in buffer containing 2% Triton X 100 and protease and phosphatase inhibitors. Samples were separated on 8% SDS-PAGE (Thermo Fischer Scientific Inc., Waltham, Massachusetts, United States of America) and transferred to PVDF membranes (Millipore Immobilon-FL, 0.45 μm; Millipore Corporation, Billerica, Massachusetts, United States of America). Blots were probed with phosphoS33-β-catenin, β-catenin, and GAPDH antibodies overnight at 4° C. and developed by enhanced chemiluminescence (Millipore). Films were scanned and integrated density values determined using AlphaEase software and normalized to values obtained for GAPDH. In some cases, GSK-3 activity was inhibited using 5 μg BIO ((2′Z, 3′E)-6-Bromoindirubin-3′-oxime) and proteasomal degradation was blocked with 10 μg lactacystin (Calbiochem) before cells were lysed.

melanoma cells = experiment: T cell recognition of GSK-3β- and proteasome-inhibited melanoma cells; assay type: cell-based, human; settings: DM331 and SLM2, re-expression of peptide-MHC in presence of inhibitor (5 μM)
Procedure: Surface peptide-MHC complexes were denatured from the cells using a mild acid buffer as previously described (Robila et al., 2008) and then allowed to re-express peptide-MHC molecules in the presence of BIO, MeBIO, or 5 μM lactacystin for 12 hours. T cell recognition of the cells was evaluated after 5 hours incubation with pS33-βcat-specific T cells.

Compound: GLLGpSPVRA (GLLG[pS]PVRA; listed as Homo sapiens) [SEQ ID NO: 396]
- Day 7 ELISpot, donor alpha (PBMCs [1]): + (3-24 spots)
- Day 7 ELISpot, donor one (PBMCs [1]): + (3-24 spots)
- Recognition of the endogenous phosphopeptide by specific CTL lines (cancer cell lines): recognized the phosphopeptide on all the cancer cell lines but not the control cell line

Compound: RQASIELPSMAV [reference compound]
- IFNγ production by RQA(pS)IELPSMAV-specific T cells in response to the peptide [2]: not to the unphosphorylated RQASIELPSMAV

Compound: QPRtPSPLVL [SEQ ID NO: 304]
- Immune response in healthy donors, in words (CD8+ T cells): some of the strongest responses
- Immune reconstitution after allogeneic stem cell transplantation (PBMCs [3]): dramatic expansion

Compound: EPRsPSHSM (EPR[pS]PSHSM; listed as Homo sapiens) [SEQ ID NO: 270]
- Immune reconstitution after allogeneic stem cell transplantation (PBMCs [3]): dramatic expansion

Compound: RVApSPTSGV (RVA[pS]PTSGV; listed as Homo sapiens) [SEQ ID NO: 418]
- Binding to / presentation by HLA A*0301 (HLA A*0301): cannot be presented by the A*0301 molecule
- Binding to / presentation by HLA A*0301 (HLA A*0301; listed as RVA): binds to A*0301
- Day 7 ELISpot, donor alpha (PBMCs [1]): ++ (25-99 spots)
- Day 7 ELISpot, donor one (PBMCs [1]): ++ (25-99 spots)
- Memory T cell response, in words (PBMCs [1]; healthy donors / patient): None of the HD recognized or responded to it
- Recognition of the endogenous phosphopeptide by specific CTL lines (cancer cell lines): recognized the phosphopeptide on all the cancer cell lines but not the control cell line
- Binding to HLA A*0201 (HLA A*0201): binds to HLA A*0201
- Binding to HLA A*0201 (HLA A*0201; listed as RVA): did not bind to A*0201

Compound: RQA(pS)IELPSMAV (RQA[pS]IELPSMAV; listed as Homo sapiens) [SEQ ID NO: 452]
- Immune response in healthy donors, in words (CD8+ T cells): some of the strongest responses
- IFNγ production by RQA(pS)IELPSMAV-specific T cells in response to the peptide [2]: produced IFNγ

Compound: CC(=O)NC(CSC(=O)C1(C(O)C(C)C)NC(=O)C(C)C1O)C(=O)O (stereo not shown) [lactacystin, 2-(acetylamino)-3-[({3-hydroxy-2-[1-hydroxy-2-methylpropyl]-4-methyl-5-oxopyrrolidin-2-yl}carbonyl)sulfanyl]propanoic acid]
- Amount of phosphoS33-β-catenin in melanoma cells (phosphoS33-β-catenin): substantial increase
- pS33-βcat-specific T cell recognition of melanoma cells (melanoma cells): abolished
